ChEMBL document CHEMBL4346703, “Structure Overhaul Affords a Potent Purine PI3Kδ Inhibitor with Improved Tolerability” (J Med Chem, 2019)

Legend:
[1] = Plasma clearance in Beagle dog at 0.25 mg/kg, iv or 0.5 mg/kg, po; assay type: ADME, organism-based, Canis lupus familiaris
[2] = biological target: PI3-kinase p110-alpha/p85-alpha (Homo sapiens, UniProt P42336); assay: Inhibition of N-terminal His6-tagged recombinant full length human p110alpha/untagged recombinant full length human p85alpha expressed in baculovirus infected Sf21 insect cells using PIP2 as substrate preincubated for 15 mins followed by substrate addition and measured after 1 hr by HTRF assay
[3] = biological target: T1, Phosphatidylinositol 4,5-bisphosphate 3-kinase catalytic subunit delta isoform (Homo sapiens, UniProt O00329); assay: Inhibition of PI3Kdelta in human Ramos cells assessed as reduction in anti-IgM-antibody-induced phosphorylation of AKT at Ser473 residue preincubated for 20 mins followed by anti-IgM antibody stimulation and measured after 30 mins by alphascreen assay; assay type: cell-based
T1 sequence (O00329 whole entry): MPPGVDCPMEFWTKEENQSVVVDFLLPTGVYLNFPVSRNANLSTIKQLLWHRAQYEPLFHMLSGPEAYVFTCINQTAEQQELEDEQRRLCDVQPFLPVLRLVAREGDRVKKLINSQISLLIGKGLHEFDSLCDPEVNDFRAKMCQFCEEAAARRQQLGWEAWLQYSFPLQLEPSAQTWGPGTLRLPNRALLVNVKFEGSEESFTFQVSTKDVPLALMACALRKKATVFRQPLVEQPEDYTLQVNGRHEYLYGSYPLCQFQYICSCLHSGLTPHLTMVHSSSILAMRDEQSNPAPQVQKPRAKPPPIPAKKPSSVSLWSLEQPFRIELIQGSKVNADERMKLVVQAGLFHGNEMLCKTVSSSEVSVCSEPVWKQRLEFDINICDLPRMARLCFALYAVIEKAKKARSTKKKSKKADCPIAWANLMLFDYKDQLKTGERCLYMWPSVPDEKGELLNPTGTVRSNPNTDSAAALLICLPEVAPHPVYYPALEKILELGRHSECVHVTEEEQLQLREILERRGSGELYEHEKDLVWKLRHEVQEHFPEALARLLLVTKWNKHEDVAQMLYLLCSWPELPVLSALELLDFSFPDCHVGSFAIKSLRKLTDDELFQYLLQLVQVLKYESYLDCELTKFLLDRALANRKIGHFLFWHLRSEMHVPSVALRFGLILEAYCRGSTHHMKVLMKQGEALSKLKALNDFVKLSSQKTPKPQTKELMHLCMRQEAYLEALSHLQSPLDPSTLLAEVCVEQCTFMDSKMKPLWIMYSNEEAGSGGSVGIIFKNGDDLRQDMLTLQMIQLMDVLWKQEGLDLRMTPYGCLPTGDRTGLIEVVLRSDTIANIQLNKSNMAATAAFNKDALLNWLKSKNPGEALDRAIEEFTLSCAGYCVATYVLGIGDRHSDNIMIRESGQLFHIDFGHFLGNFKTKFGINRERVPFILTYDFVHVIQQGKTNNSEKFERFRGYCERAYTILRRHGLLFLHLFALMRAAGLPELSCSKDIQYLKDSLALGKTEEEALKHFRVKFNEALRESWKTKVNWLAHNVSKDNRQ

[4] = biological target: T1, Phosphatidylinositol 4,5-bisphosphate 3-kinase catalytic subunit delta isoform; assay: Inhibition of PI3Kdelta in human whole blood assessed as reduction in anti-CD79b antibody-induced CD69 expression preincubated for 60 mins followed by anti-CD79b antibody stimulation and measured after 3 hrs by FACS analysis; assay type: tissue-based
Phosphodiesterase 1 = Phosphodiesterase 1 (Homo sapiens, UniProt P54750+Q01064+Q14123); assay: Inhibition of PDE1 (unknown origin); assay type: protein assay
[5] = biological target: cGMP-dependent 3',5'-cyclic phosphodiesterase (Homo sapiens, UniProt O00408); assay: Inhibition of PDE2 (unknown origin)
cGMP-dependent 3',5'-cyclic phosphodiesterase, sequence (O00408 whole entry): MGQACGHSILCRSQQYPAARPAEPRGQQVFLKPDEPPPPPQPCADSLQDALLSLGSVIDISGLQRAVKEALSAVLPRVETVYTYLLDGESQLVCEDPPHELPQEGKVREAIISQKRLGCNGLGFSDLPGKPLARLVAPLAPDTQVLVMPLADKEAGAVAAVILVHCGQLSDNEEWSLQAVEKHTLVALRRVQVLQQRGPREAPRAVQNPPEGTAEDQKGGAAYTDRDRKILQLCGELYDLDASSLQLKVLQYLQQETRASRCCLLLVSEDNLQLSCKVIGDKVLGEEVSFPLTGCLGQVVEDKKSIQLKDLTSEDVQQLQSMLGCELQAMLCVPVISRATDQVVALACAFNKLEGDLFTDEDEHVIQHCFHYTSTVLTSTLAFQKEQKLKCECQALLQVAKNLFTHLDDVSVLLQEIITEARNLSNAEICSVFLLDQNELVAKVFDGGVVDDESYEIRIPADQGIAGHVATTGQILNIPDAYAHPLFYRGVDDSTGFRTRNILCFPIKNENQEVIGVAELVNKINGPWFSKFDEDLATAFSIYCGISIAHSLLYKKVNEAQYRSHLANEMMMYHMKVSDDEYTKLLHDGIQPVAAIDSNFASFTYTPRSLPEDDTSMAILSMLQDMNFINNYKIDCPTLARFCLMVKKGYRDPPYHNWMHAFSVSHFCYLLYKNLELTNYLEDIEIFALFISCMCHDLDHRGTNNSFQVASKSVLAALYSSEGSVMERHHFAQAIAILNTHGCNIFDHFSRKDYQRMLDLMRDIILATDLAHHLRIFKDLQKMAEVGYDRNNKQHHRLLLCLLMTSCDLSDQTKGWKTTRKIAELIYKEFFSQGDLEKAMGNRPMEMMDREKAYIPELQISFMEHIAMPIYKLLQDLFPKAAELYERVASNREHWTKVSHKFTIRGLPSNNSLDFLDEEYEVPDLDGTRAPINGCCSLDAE

[6] = biological target: cGMP-specific 3',5'-cyclic phosphodiesterase (Homo sapiens, UniProt O76074); assay: Inhibition of PDE5 (unknown origin)
Phosphodiesterase 6 = assay: Inhibition of PDE6 (unknown origin); assay type: protein assay, Homo sapiens
Phosphodiesterase 7 = Phosphodiesterase 7 (Homo sapiens, UniProt Q13946+Q9NP56); assay: Inhibition of PDE7 (unknown origin); assay type: protein assay
[7] = biological target: High affinity cGMP-specific 3',5'-cyclic phosphodiesterase 9A (Homo sapiens, UniProt O76083); assay: Inhibition of PDE9 (unknown origin)
High affinity cGMP-specific 3',5'-cyclic phosphodiesterase 9A, sequence (O76083 whole entry): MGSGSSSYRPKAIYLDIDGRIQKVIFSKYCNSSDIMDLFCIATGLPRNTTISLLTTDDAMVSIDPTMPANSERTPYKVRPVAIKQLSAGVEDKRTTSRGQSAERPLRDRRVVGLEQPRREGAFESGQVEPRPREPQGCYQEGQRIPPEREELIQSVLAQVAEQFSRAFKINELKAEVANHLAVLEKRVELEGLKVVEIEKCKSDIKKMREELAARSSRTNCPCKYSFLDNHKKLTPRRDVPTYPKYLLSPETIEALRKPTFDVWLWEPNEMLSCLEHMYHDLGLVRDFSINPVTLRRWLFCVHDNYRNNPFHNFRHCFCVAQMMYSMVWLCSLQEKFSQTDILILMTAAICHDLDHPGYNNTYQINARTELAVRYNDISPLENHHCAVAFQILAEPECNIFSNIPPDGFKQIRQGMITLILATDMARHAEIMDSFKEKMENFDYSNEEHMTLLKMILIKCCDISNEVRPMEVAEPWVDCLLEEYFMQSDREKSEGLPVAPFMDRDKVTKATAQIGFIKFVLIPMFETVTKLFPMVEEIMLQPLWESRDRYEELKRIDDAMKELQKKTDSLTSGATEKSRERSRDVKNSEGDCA

[8] = biological target: cAMP and cAMP-inhibited cGMP 3',5'-cyclic phosphodiesterase 10A (Homo sapiens, UniProt Q9Y233); assay: Inhibition of PDE10 (unknown origin)
cAMP and cAMP-inhibited cGMP 3',5'-cyclic phosphodiesterase 10A, sequence (Q9Y233 whole entry): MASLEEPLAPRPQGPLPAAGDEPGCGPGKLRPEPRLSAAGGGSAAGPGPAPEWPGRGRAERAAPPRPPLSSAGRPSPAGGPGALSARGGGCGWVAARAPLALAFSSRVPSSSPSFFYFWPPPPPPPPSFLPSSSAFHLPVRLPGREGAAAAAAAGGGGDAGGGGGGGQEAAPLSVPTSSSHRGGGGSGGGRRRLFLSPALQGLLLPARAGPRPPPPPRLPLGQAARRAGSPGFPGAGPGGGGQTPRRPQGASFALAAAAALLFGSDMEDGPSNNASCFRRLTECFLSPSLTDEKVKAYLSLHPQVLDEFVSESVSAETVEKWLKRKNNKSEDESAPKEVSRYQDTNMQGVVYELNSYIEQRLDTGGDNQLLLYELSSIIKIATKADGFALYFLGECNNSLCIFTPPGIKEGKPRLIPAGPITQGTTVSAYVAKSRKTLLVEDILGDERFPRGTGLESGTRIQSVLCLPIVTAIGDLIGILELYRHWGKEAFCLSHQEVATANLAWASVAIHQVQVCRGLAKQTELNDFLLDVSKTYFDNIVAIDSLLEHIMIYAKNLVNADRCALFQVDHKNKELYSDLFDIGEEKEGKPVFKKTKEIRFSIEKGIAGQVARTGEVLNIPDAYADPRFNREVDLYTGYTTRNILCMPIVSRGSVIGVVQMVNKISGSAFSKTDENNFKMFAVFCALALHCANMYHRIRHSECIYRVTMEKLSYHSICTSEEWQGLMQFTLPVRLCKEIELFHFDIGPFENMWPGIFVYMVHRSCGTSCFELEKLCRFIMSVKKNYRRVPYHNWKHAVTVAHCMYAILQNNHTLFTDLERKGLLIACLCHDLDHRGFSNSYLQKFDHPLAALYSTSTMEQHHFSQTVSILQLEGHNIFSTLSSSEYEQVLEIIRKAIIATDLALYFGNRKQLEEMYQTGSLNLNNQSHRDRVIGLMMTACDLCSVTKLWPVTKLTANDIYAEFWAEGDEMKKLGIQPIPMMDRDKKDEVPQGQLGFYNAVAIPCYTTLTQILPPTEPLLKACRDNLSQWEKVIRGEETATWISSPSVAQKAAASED

[9] = biological target: Dual 3',5'-cyclic-AMP and -GMP phosphodiesterase 11A (Homo sapiens, UniProt Q9HCR9); assay: Inhibition of PDE11 (unknown origin)
Dual 3',5'-cyclic-AMP and -GMP phosphodiesterase 11A, sequence (Q9HCR9 whole entry): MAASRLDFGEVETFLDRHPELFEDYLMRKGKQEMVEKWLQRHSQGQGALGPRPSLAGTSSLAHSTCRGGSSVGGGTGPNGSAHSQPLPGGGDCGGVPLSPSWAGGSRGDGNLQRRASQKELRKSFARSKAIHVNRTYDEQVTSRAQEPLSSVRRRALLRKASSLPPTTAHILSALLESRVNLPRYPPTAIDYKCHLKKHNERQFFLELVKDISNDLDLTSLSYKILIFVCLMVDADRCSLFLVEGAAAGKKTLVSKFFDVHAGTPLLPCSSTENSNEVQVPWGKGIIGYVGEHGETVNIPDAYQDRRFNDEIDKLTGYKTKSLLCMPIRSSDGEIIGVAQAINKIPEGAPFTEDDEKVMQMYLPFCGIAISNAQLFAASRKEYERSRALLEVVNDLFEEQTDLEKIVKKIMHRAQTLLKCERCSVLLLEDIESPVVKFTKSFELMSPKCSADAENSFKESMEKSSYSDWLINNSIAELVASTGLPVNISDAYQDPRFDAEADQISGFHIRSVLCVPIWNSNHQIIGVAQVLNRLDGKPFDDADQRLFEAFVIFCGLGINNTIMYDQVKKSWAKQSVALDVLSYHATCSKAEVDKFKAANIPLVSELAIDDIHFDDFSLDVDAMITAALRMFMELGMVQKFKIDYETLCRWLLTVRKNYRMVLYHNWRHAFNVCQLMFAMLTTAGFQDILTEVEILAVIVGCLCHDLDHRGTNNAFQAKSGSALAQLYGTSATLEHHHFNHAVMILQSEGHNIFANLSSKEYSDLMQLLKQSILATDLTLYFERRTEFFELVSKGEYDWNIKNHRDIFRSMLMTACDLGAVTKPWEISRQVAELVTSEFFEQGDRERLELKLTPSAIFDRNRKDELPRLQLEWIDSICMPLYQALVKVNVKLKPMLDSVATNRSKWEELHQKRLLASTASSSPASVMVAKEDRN

[10] = Plasma clearance in Wistar Han rat at 0.5 mg/kg, iv or 1 mg/kg, po; assay type: ADME, organism-based
[11] = Intrinsic clearance in Wistar Han rat at 0.5 mg/kg, iv or 1 mg/kg, po; assay type: ADME, organism-based; conditions: in vivo
[12] = Volume of distribution in Wistar Han rat; assay type: ADME; conditions: in vivo
[13] = Half-life in Wistar Han rat; assay type: ADME; conditions: in vivo
[14] = Protein binding in Wistar Han rat plasma; assay type: ADME, cell-free; conditions: read-out: PPB (converted)
[15] = Intrinsic clearance in Beagle dog at 0.25 mg/kg, iv or 0.5 mg/kg, po; assay type: ADME, organism-based, Canis lupus familiaris; conditions: in vivo
[16] = Oral bioavailability in Beagle dog; assay type: ADME, organism-based, Canis lupus familiaris; conditions: in vivo
[17] = Protein binding in Beagle dog plasma; assay type: ADME, cell-free, Canis lupus familiaris; conditions: read-out: PPB (converted)
[18] = fCmax in telemetered rat at 60 mg/kg; assay type: ADME, organism-based; conditions: in vivo
[19] = fAUC in rat at 750 mg/kg administered for 4 days; assay type: ADME, organism-based; conditions: in vivo, 96 h
[20] = fAUC in Beagle dog at 25 mg/kg administered for 8 days; assay type: ADME, organism-based, Canis lupus familiaris; conditions: in vivo, 192 h
[21] = fCmax in Beagle dog at 25 mg/kg administered for 8 days; assay type: ADME, organism-based, Canis lupus familiaris; conditions: in vivo, 192 h
[22] = Toxicity in Beagle dog assessed as decrease in basophil count at 25 mg/kg administered for 8 days; assay type: organism-based, Canis lupus familiaris; conditions: in vivo, 192 h
Canis familiaris = assay: Hemodynamic activity in Beagle dog at 25 mg/kg administered for 8 days; assay type: ADME, organism-based, Canis lupus familiaris; conditions: in vivo, 192 h
[23] = Lipophilicity, log D of the compound; assay type: physicochemical; conditions: octanol/water
[24] = Solubility of the compound; assay type: physicochemical
Cytochrome P450 = assay: Inhibition of cytochrome P450 (unknown origin); assay type: ADME, protein assay; conditions: human
[25] = Drug recovery in rat urine after 24 hrs; assay type: ADME; conditions: read-out: Drug recovery
[26] = Drug recovery in rat bile after 24 hrs; assay type: ADME; conditions: read-out: Drug recovery
Homo sapiens [27] = species on record: Homo sapiens; assay: Selectivity ratio of IC50 for N-terminal His6-tagged recombinant full length human p110alpha/untagged recombinant full length human p85alpha expressed in baculovirus infected Sf21 insect cells to IC50 for N-terminal His6-tagged recombinant full length human p110delta/untagged recombinant full length human p85alpha expressed in baculovirus infected Sf21 insect cells
Homo sapiens [28] = species on record: Homo sapiens; assay: Selectivity ratio of IC50 for N-terminal His6-tagged recombinant full length human p110beta/untagged recombinant full length human p85alpha expressed in baculovirus infected Sf21 insect cells to N-terminal His6-tagged recombinant full length human p110delta/untagged recombinant full length human p85alpha expressed in baculovirus infected Sf21 insect cells
[29] = Intrinsic clearance in rat microsomes; assay type: ADME, Microsome
[30] = Intrinsic clearance in rat hepatocytes; assay type: ADME, cell-based, Hepatocyte; conditions: read-out: CLH

Question: What does the source list for `CCn1ncc(-c2nc3c(O[C@H]4CCN(C(=O)C5CCOCC5)C4)ncnc3n2C)c1C`?
Answer: clearance [1]: 5.8 mL/min/kg; IC50 [2]: 0.27 µM; IC50 [3]: 0.062 µM; IC50 [4]: 0.36 µM; IC50 (Phosphodiesterase 1): > 50 µM; IC50 [5]: > 50 µM; IC50 [6]: > 50 µM; IC50 (Phosphodiesterase 6): > 50 µM; IC50 (Phosphodiesterase 7): > 50 µM; IC50 [7]: > 50 µM; IC50 [8]: > 50 µM; IC50 [9]: > 20 µM; clearance [10]: 41 mL/min/kg; CL [11]: 126 mL/min/kg; Vd [12]: 1.2 L/kg; half-life [13]: 48 min; fraction unbound [14]: 0.73; CL [15]: 10 mL/min/kg; bioavailability [16]: 100%; fraction unbound [17]: 0.74; fCmax [18]: 44 µM; fAUC [19]: 990 µM·h; fAUC [20]: 222 µM·h; fCmax [21]: 46 µM; Activity [22]: Non-Toxic; Activity (Canis familiaris): Non-Toxic; logD [23]: 1.1; solubility [24]: > 10000 µg/mL; inhibition (INH) (Cytochrome P450): Not Active; dose excreted at 24 h [25]: 17%; dose excreted at 24 h [26]: 2%; Ratio IC50 (Homo sapiens [27]): 69; Ratio IC50 (Homo sapiens [28]): 1400; CLint scaled [29]: < 110 mL/min/kg; CLint scaled [30]: < 40 mL/min/kg
